Source: ChEMBL document CHEMBL3632488, “Discovery of potent and selective cytotoxic activity of new quinazoline-ureas against TMZ-resistant glioblastoma multiforme (GBM)” (Eur J Med Chem, 2015)
Activity calls are given as the source filed them. The rule behind the calls is not given here.

Key:
Translocator protein = Translocator protein (Rattus norvegicus, UniProt P16257); experiment: Displacement of [3H]PK11195 from TSPO receptor in Sprague-Dawley rat cerebral cortex membrane by radiometric competitive assay; format: tissue-based
GBM [1] = experiment: Tumoricidal effect in patient derived GBM 025T cells assessed as reduction in neurosphere formation at 0.1 uM after 1 to 2 weeks by 3D tumor clonogenic assay; format: functional, cell-based; conditions: Homo sapiens
[2] = Selectivity index, ratio of IC50 for normal human astrocytes to IC50 for human GBM2 cells
[3] = Antiproliferative activity against human GBM2 cells assessed as reduction in cell viability incubated for 72 hrs by WST-1 method; format: functional, cell-based; conditions: GBM2, 72 h
GBM2 [4] = experiment: Induction of apoptosis in human GBM2 cells assessed as loss of mitochondrial membrane potential in presence of PK11195 at 10 uM after 2 hrs by JC-1 staining based fluorescence microscopy; format: functional, cell-based
[5] = Cytotoxicity against normal human astrocytes assessed as cell viability incubated for 72 hrs by WST-1 method; format: cell-based; conditions: Astrocyte
GBM2 [6] = experiment: Induction of apoptosis in human GBM2 cells assessed as loss of mitochondrial membrane potential at 10 uM after 2 hrs by JC-1 staining based fluorescence microscopy; format: functional, cell-based
[7] = target: Translocator protein (Rattus norvegicus) (UniProt P16257); experiment: Displacement of [3H]PK11195 from TSPO receptor in Sprague-Dawley rat cerebral cortex membrane at 10 nM by radiometric competitive assay; format: tissue-based
GBM [8] = experiment: Tumoricidal effect in patient derived GBM 047T cells assessed as reduction in neurosphere formation at 0.5 uM after 1 to 2 weeks by 3D tumor clonogenic assay; format: functional, cell-based; conditions: Homo sapiens
Cytochrome P450 2D6 = Cytochrome P450 2D6 (Homo sapiens, UniProt P10635); experiment: Inhibition of CYP2D6 (unknown origin) using luciferin tagged substrate preincubated for 10 mins before substrate addition; format: ADME
GBM [9] = experiment: Tumoricidal effect in patient derived GBM 448T cells assessed as reduction in neurosphere formation at 0.1 uM after 1 to 2 weeks by 3D tumor clonogenic assay; format: functional, cell-based; conditions: Homo sapiens
[10] = Antiproliferative activity against human GBM3 cells assessed as reduction in cell viability incubated for 72 hrs by WST-1 method; format: functional, cell-based; conditions: GBM3, 72 h
GBM [11] = experiment: Tumoricidal effect in patient derived GBM 096T cells assessed as reduction in neurosphere formation at 0.1 uM after 1 to 2 weeks by 3D tumor clonogenic assay; format: functional, cell-based; conditions: Homo sapiens
[12] = Antiproliferative activity against human GBM1 cells assessed as reduction in cell viability incubated for 72 hrs by WST-1 method; format: functional, cell-based; conditions: GBM1, 72 h
[13] = Antiproliferative activity against human GBM3 cells assessed as reduction in cell viability at 10 uM incubated for 72 hrs by WST-1 method; format: functional; conditions: GBM3, 72 h
GBM2 [14] = experiment: Induction of apoptosis in human GBM2 cells assessed as loss of mitochondrial membrane potential in presence of cyclosporine A at 10 uM after 2 hrs by JC-1 staining based fluorescence microscopy; format: functional, cell-based
GBM [15] = experiment: Tumoricidal effect in patient derived GBM 047T cells assessed as reduction in neurosphere formation at 0.1 uM after 1 to 2 weeks by 3D tumor clonogenic assay; format: functional, cell-based; conditions: Homo sapiens
GBM [16] = experiment: Tumoricidal effect in patient derived GBM 096T cells assessed as reduction in neurosphere formation at 0.5 uM after 1 to 2 weeks by 3D tumor clonogenic assay; format: functional, cell-based; conditions: Homo sapiens
GBM [17] = experiment: Tumoricidal effect in patient derived GBM 464T cells assessed as reduction in neurosphere formation at 0.5 uM after 1 to 2 weeks by 3D tumor clonogenic assay; format: functional, cell-based; conditions: Homo sapiens
[18] = Selectivity index, ratio of IC50 for normal human astrocytes to IC50 for human GBM3 cells
GBM [19] = experiment: Tumoricidal effect in patient derived GBM 448T cells assessed as reduction in neurosphere formation at 0.5 uM after 1 to 2 weeks by 3D tumor clonogenic assay; format: functional, cell-based; conditions: Homo sapiens
[20] = Selectivity index, ratio of IC50 for normal human astrocytes to IC50 for human GBM1 cells
[21] = target: Translocator protein (Rattus norvegicus) (UniProt P16257); experiment: Displacement of [3H]PK11195 from TSPO receptor in Sprague-Dawley rat cerebral cortex membrane at 100 nM by radiometric competitive assay; format: tissue-based
[22] = target: Translocator protein (Rattus norvegicus) (UniProt P16257); experiment: Displacement of [3H]PK11195 from TSPO receptor in Sprague-Dawley rat cerebral cortex membrane at 10 uM by radiometric competitive assay; format: tissue-based
Cytochrome P450 1A2 = target: T1, Cytochrome P450 1A2 (Homo sapiens, UniProt P05177); experiment: Inhibition of CYP1A2 (unknown origin) using luciferin tagged substrate preincubated for 10 mins before substrate addition; format: ADME
T1 sequence (P05177 whole entry): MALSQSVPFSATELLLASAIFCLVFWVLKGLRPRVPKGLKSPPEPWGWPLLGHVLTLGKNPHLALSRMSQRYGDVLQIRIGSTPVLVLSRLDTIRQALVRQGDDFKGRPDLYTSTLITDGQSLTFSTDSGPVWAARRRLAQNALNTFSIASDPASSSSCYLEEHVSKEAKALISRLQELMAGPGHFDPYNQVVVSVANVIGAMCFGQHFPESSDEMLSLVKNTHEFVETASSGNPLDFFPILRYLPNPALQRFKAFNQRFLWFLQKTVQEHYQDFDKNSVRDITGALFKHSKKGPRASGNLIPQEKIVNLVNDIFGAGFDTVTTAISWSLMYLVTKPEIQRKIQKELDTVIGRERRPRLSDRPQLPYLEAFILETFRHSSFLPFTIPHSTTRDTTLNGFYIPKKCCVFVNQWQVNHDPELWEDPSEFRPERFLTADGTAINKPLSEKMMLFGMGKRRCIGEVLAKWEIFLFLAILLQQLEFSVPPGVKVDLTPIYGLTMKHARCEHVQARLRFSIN

Cytochrome P450 3A4 = Cytochrome P450 3A4 (Homo sapiens, UniProt P08684); experiment: Inhibition of CYP3A4 (unknown origin) using luciferin tagged substrate preincubated for 10 mins before substrate addition; format: ADME
GBM1 = experiment: Induction of apoptosis in human GBM1 cells assessed as loss of mitochondrial membrane potential at 10 uM after 2 hrs by JC-1 staining based fluorescence microscopy; format: functional, cell-based
[23] = target: Translocator protein (Rattus norvegicus) (UniProt P16257); experiment: Displacement of [3H]PK11195 from TSPO receptor in Sprague-Dawley rat cerebral cortex membrane at 1 uM by radiometric competitive assay; format: tissue-based
[24] = Antiproliferative activity against human GBM1 cells assessed as reduction in cell viability at 10 uM incubated for 72 hrs by WST-1 method; format: functional; conditions: GBM1, 72 h
GBM [25] = experiment: Tumoricidal effect in patient derived GBM 464T cells assessed as reduction in neurosphere formation at 0.1 uM after 1 to 2 weeks by 3D tumor clonogenic assay; format: functional, cell-based; conditions: Homo sapiens
Cytochrome P450 2C9 = Cytochrome P450 2C9 (Homo sapiens, UniProt P11712); experiment: Inhibition of CYP2C9 (unknown origin) using luciferin tagged substrate preincubated for 10 mins before substrate addition; format: ADME
[26] = target: Voltage-gated inwardly rectifying potassium channel KCNH2 (Homo sapiens, UniProt Q12809); experiment: Displacement of [3H]astemizole from human ERG potassium channel expressed in HEK293 cell membrane after 1 hr; format: cell membranes
GBM2 [27] = experiment: Induction of apoptosis in human GBM2 cells assessed as loss of mitochondrial membrane potential in presence of BAPTA at 10 uM after 2 hrs by JC-1 staining based fluorescence microscopy; format: functional, cell-based
[28] = Antiproliferative activity against human GBM2 cells assessed as reduction in cell viability at 10 uM incubated for 72 hrs by WST-1 method; format: functional; conditions: GBM2, 72 h
Cytochrome P450 2C19 = Cytochrome P450 2C19 (Homo sapiens, UniProt P33261); experiment: Inhibition of CYP2C19 (unknown origin) using luciferin tagged substrate preincubated for 10 mins before substrate addition; format: ADME
GBM [29] = experiment: Tumoricidal effect in patient derived GBM 025T cells assessed as reduction in neurosphere formation at 0.5 uM after 1 to 2 weeks by 3D tumor clonogenic assay; format: functional, cell-based; conditions: Homo sapiens

- IC50 (Translocator protein): 0.722 µM
- inhibition [7]: 2%
- IC50 (Cytochrome P450 2D6): 5.1 µM
- inhibition [21]: 15%
- inhibition [22]: 85%
- IC50 (Cytochrome P450 1A2): > 10 µM
- IC50 (Cytochrome P450 3A4): > 10 µM
- inhibition [23]: 59%
- IC50 (Cytochrome P450 2C9): > 10 µM
- IC50 (Cytochrome P450 2C19): > 10 µM
Compound: O=C(Nc1cc2ncncc2cc1OCc1cccc(Cl)c1)Nc1cccc2ccccc12
- Activity (GBM [1]): Active
- Ratio IC50 [2]: >10.1
- IC50 [3]: 1.1 µM
- Activity (GBM2 [4]): Active
- IC50 [5]: > 10 µM
- Activity (GBM2 [6]): Active
- Activity (GBM [8]): Active
- Activity (GBM [9]): inactive
- IC50 [10]: 0.8 µM
- Activity (GBM [11]): Active
- IC50 [12]: 1.1 µM
- inhibition at 10 µM [13]: 98.7%
- Activity (GBM2 [14]): Active
- Activity (GBM [15]): inactive
- Activity (GBM [16]): Active
- Activity (GBM [17]): Active
- Ratio IC50 [18]: >10.1
- Activity (GBM [19]): Active
- Ratio IC50 [20]: >10.1
- Activity (GBM1): Active
- inhibition at 10 µM [24]: 100%
- Activity (GBM [25]): Active
- IC50 [26]: > 10 µM
- Activity (GBM2 [27]): Active
- inhibition at 10 µM [28]: 99.9%
- Activity (GBM [29]): Active
